Data published in PubChem BioAssay (NCI).
Values joined by “and” are separate entries in the source; they are usually repeats but may differ in a detail not shown here. Equal values may be shown once.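 Exposure lasted 48 hours, with cells grown in 96-well plates and compounds tested at five concentrations. GI50 is the concentration that inhibits growth by half. TGI denotes the concentration required for complete inhibition of growth.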

What was measured:
Assay in all cases: inhibition of tumour cell growth, NCI panel, 48 h
A498 renal = test system: A498 renal
EKVX NSCLC = test system: EKVX NSCLC
HOP-62 NSCLC = test system: HOP-62 NSCLC
HOP-92 NSCLC = test system: HOP-92 NSCLC
K-562 leukemia = test system: K-562 leukemia
MCF7 breast = test system: MCF7 breast
NCI-H23 lung = test system: NCI-H23 lung
OVCAR-5 ovarian = test system: OVCAR-5 ovarian
SW-620 colon = test system: SW-620 colon
UACC-257 melanoma = test system: UACC-257 melanoma

| SMILES | GI50 (A498 renal) | TGI (A498 renal) | GI50 (EKVX NSCLC) | TGI (EKVX NSCLC) | GI50 (HOP-62 NSCLC) | TGI (HOP-62 NSCLC) | GI50 (HOP-92 NSCLC) | TGI (HOP-92 NSCLC) | GI50 (K-562 leukemia) | TGI (K-562 leukemia) | GI50 (MCF7 breast) | TGI (MCF7 breast) | GI50 (NCI-H23 lung) | TGI (NCI-H23 lung) | GI50 (OVCAR-5 ovarian) | TGI (OVCAR-5 ovarian) | GI50 (SW-620 colon) | TGI (SW-620 colon) | GI50 (UACC-257 melanoma) | TGI (UACC-257 melanoma) |
| --- | --- | --- | --- | --- | --- | --- | --- | --- | --- | --- | --- | --- | --- | --- | --- | --- | --- | --- | --- | --- |
| O=C1COCCN1c1ccc(NCc2cn(Cc3ccc(F)cc3)c3ccccc23)cc1 | 0.0203 µM | 0.0821 µM | 10.8 µM | > 66.7 µM | 0.783 µM | > 31.7 µM | 1.74 µM | 11.8 µM | 1.25 µM | > 51.3 µM | 0.114 µM | 13 µM | 2.64 µM | 32.1 µM | 0.0418 µM | 0.231 µM | 0.562 µM | > 52.6 µM | 0.204 µM | 0.844 µM |
| COc1ccc2c(C(=O)NCCCCCC(=O)O)cc3cc4c(cc3c2c1)OCO4 | > 100 µM | > 100 µM | > 100 µM | > 100 µM | > 100 µM | > 100 µM | > 100 µM | > 100 µM | > 100 µM | > 100 µM | > 100 µM | > 100 µM | > 100 µM | > 100 µM | > 100 µM | > 100 µM | > 100 µM | > 100 µM | > 100 µM | > 100 µM |
| COc1ccc2nc3c(cc2c1)C(=O)CC(C(F)(F)F)C3 (configuration not stated) | 0.278 µM | 1.55 µM | 4.46 µM | > 100 µM | 3.36 µM | > 100 µM | 2.8 µM | 94.2 µM | 0.406 µM | > 100 µM | 3.33 µM | > 100 µM | 5.39 µM | > 100 µM | 5.56 µM | > 100 µM | 2.68 µM | > 100 µM | > 96.2 µM | > 100 µM |
| COc1ccc(-n2cc(-c3ccc(F)cc3)[nH]c2=O)cc1OC | > 100 µM | > 100 µM | > 100 µM | > 100 µM | 54.7 µM | > 100 µM | 79.1 µM | > 100 µM | 7.5 µM | > 100 µM | > 100 µM | > 100 µM | > 100 µM | > 100 µM | > 100 µM | > 100 µM | > 100 µM | > 100 µM | > 100 µM | > 100 µM |
| COc1ccc(/C=C/c2cnnc3ccccc23)cc1OC | – | > 10 µM | – | > 10 µM | – | > 10 µM | – | > 10 µM | – | > 10 µM | – | > 10 µM | – | > 10 µM | – | > 10 µM | – | > 10 µM | – | > 10 µM |
| O=c1c(-c2nc3ccccc3[nH]2)cc2ccccc2n1Cc1cn(Cc2ccc(F)cc2)nn1 | 0.127 µM | 0.716 µM | 0.799 µM | > 100 µM | 0.222 µM | 9.51 µM | 0.364 µM | 18.2 µM | 0.0609 µM | > 100 µM | 0.0329 µM | > 55.1 µM | 0.457 µM | 19 µM | 0.287 µM | 7.84 µM | 0.0672 µM | > 100 µM | > 100 µM | > 100 µM |
| COc1cc(-c2cc(C(=O)N3CCN(C(=O)c4ccccc4NCc4cccs4)CC3)nc3cc(-c4ccccc4)nn23)cc(OC)c1OC | 8.44 µM | > 100 µM | 53.9 µM | > 100 µM | 11 µM | 86.7 µM | 2.41 µM | 9.22 µM | 1.38 µM | 17.4 µM | 2.56 µM | > 100 µM | 15.7 µM | > 100 µM | 15.1 µM | > 100 µM | 4.7 µM | > 100 µM | > 100 µM | > 100 µM |
| COc1cc(/C=C/C(=O)c2ccc(SC)cc2)cc(OC)c1OC | 0.936 µM | 17.1 µM | 14.9 µM | 29.4 µM | 14.7 µM | 29.5 µM | 32.9 µM | > 100 µM | 3.2 µM | 16.4 µM | 5.22 µM | 24.1 µM | 10 µM | 23.5 µM | 20.6 µM | 35.6 µM | 6.89 µM | 21.6 µM | 5.45 µM | 18.1 µM |
| NC(CSC(c1ccccc1)(c1ccccc1)c1ccc(Br)cc1)C(=O)O (configuration not stated) | 0.259 µM | 32.5 µM | 0.707 µM | > 100 µM | 0.457 µM | 21.8 µM | 2.47 µM | 39.6 µM | 0.311 µM | 20.6 µM | 0.0573 µM | > 51.2 µM | 0.438 µM | 66.7 µM | 5.13 µM | > 100 µM | 0.1 µM | 27.7 µM | 7.44 µM | > 72.8 µM |
| COc1nc(C(Cl)(Cl)Cl)c(Cl)c(OC)c1Cl | > 35.9 µM | > 55.7 µM and 96.2 µM | > 55.4 µM | > 94.7 µM and 78.3 µM | > 43.2 µM | > 62.8 µM and 22.5 µM | > 40.4 µM | > 59.3 µM and 62 µM | > 42.6 µM | > 63.4 µM and 94.2 µM | – | 66.8 µM | > 31.6 µM | > 31.6 µM and 79.4 µM | – | > 72.4 µM and 78.7 µM | > 49.3 µM | > 74.8 µM and 75 µM | > 50.9 µM | > 72.9 µM and 79.7 µM |
| O=C(Nc1ccc(-n2cc(-c3ccncc3)c(-c3ccc(Cl)c(O)c3)n2)cc1)c1ccc(Cl)c(C(F)(F)F)c1 | 5.53 µM | 34.9 µM | 4.65 µM | > 25 µM | 0.622 µM | 2.2 µM | 1.99 µM | 5.87 µM | 0.404 µM | 4.09 µM | 1.92 µM | 8.6 µM | 1.72 µM | 5.08 µM | 5.25 µM | 29.4 µM | 1.48 µM | 3.14 µM | 3.27 µM | 39.9 µM |
| Cc1cnc2n(c1=O)Cc1ccccc1CO2 | 19.5 µM | 45.4 µM | 20.8 µM | 45.1 µM | 20 µM | 38 µM | 19.3 µM | 44.3 µM | 18.7 µM | 48.3 µM | 10.6 µM | 28.1 µM | 21.1 µM | 60.5 µM | 27.4 µM | > 92.4 µM | 17.3 µM | 49 µM | 23 µM | 66 µM |
| CC/C(=C(/c1ccc(Cl)cc1)c1ccc(OCCCN(C)C)cc1)c1ccc(OC)cc1 | 5.5 µM | 12.1 µM | 5.76 µM | 12.6 µM | 7.76 µM | 15.7 µM | 0.829 µM | 1.97 µM | 1.06 µM | 2.57 µM | 1.05 µM | 5.89 µM | 7.43 µM | 15.1 µM | 6.54 µM | 14.2 µM | 1.16 µM | 2.96 µM | 7.93 µM | 15 µM |
| COc1ccc(/C=N/C2=C(C#N)C(c3ccccc3)c3ccc4ccccc4c3O2)cc1 (configuration not stated) | 0.213 µM | 0.785 µM | – | > 100 µM | 0.373 µM | > 100 µM | 0.439 µM | > 44 µM | 0.23 µM | > 100 µM | 0.425 µM | > 100 µM | 0.469 µM | > 100 µM | 0.885 µM | > 100 µM | 0.316 µM | > 100 µM | > 84.5 µM | > 100 µM |
| COc1ccc(-c2nn(C(=O)c3cc(OC)c(OC)c(OC)c3)c3cc(N)ccc23)cc1 | < 0.01 µM | < 0.0171 µM | < 0.0187 µM | 51.3 µM | < 0.0153 µM | 6.33 µM | 1.86 µM | 25.8 µM | < 0.01 µM | 10.5 µM | 0.0226 µM | 2.19 µM | 0.0292 µM | 15.7 µM | 1.54 µM | 27.3 µM | < 0.01 µM | 23.4 µM | 5.54 µM | 39.3 µM |
| COc1cc(Nc2nccc(-c3cnn4ncccc34)n2)cc(OC)c1 | 0.0576 µM | 0.183 µM | 0.113 µM | 4.96 µM | 0.0868 µM | 0.651 µM | 0.0317 µM | 0.151 µM | 0.115 µM | > 25 µM | 0.0521 µM | 0.2 µM | 0.0579 µM | 0.586 µM | 0.0759 µM | 1.9 µM | 0.0758 µM | 4.78 µM | 0.0844 µM | 0.48 µM |
| CCc1cc(Cc2cc(CC)cc(C(C)(C)C)c2O)c(O)c(C(C)(C)C)c1 | 1.76 µM | 5.39 µM | 2.24 µM | 6.77 µM | 4.39 µM | 17.1 µM | 2.25 µM | 7.97 µM | 3.37 µM | 13.9 µM | 2.49 µM | 7.74 µM | 3.33 µM | 12.5 µM | 9.69 µM | 21.4 µM | 2.25 µM | 7.07 µM | 2.79 µM | 11.6 µM |
| COc1cc(-c2nc3cc(Cl)c(Cl)cc3[nH]2)ccc1OCC(=O)N=Nc1c(O)[nH]c2ccccc12 | 1.46 µM | 3.37 µM | 2.02 µM | 21.7 µM | 0.832 µM | 2.62 µM | 0.794 µM | 2.42 µM | 0.345 µM | > 31.7 µM | 0.201 µM | 0.479 µM | 0.287 µM | 0.938 µM | 0.84 µM | 2.45 µM | 0.355 µM | 1.43 µM | 1.32 µM | 3.67 µM |
